From US9624206B2, “Antibacterial 1H-indazole and 1H-indole derivatives” (priority 2013, dated 2017) come the findings set out here.

Structures are written as SMILES. In brackets after ≈: the same amount, converted by molar mass. Read-outs that look alike come from different tables or passages of the source.

Common to all, as to assay type: cell-based
Test [1] deals with Acinetobacter baumannii T6474. Kind of test: Bacterial growth minimal inhibitory concentration (microdilution, CLSI M7-A7). To be noted: multiply-resistant strain (in particular quinolone-resistant), cation-adjusted Mueller-Hinton Broth; for MIC: Acinetobacter baumannii, T6474. An outline of the steps:
(§1)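 Broth microdilution in cation-adjusted Mueller-Hinton broth per CLSI M7-A7, with MICs in mg/L. K. pneumoniae A-651 and A. baumannii T6474 are multiply resistant, including to quinolones. E. coli ATCC25922 and P. aeruginosa ATCC27853 are quinolone-sensitive.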
Background: Broth dilution looks for growth in wells or tubes with falling amounts of substance.

Another test has as its system E. coli ATCC25922. The test is described as above. The settings on record: quinolone-sensitive strain, cation-adjusted Mueller-Hinton Broth; for MIC: Escherichia coli, ATCC25922. An outline of the steps:
as §1

In another test the test system is K. pneumoniae A-651. The test is described as above. To be noted: multiply-resistant strain (in particular quinolone-resistant), cation-adjusted Mueller-Hinton Broth; for MIC: Klebsiella pneumoniae, A651. An outline of the steps: as §1
For a further test, the system named is P. aeruginosa ATCC27853. Described as above. The settings on record: quinolone-sensitive strain, cation-adjusted Mueller-Hinton Broth; for MIC: Pseudomonas aeruginosa, ATCC27853. An outline of the steps:
as §1

In a further test the test system is wild-type E. coli A-1261. Kind of test: MIC against wild-type E. coli A-1261 with or without alkaline phosphatase or esterase. To be noted: Escherichia coli. How it is done: Minimal Inhibitory Concentrations (MICs; mg/L) were determined in cation-adjusted Mueller-Hinton Broth by a microdilution method following the description given in “Methods for Dilution Antimicrobial Susceptibility Tests for Bacteria that Grow Aerobically”, Approved standard, 7th ed., Clinical and Laboratory Standards Institute (CLSI) Document M7-A7, Wayne, Pa., USA (2006). The compounds of Examples 48 and 49 were tested against wild-type E. coli A-1261 in the absence of alkaline phosphatase or esterase, in the presence of an alkaline phosphatase and in the presence of an esterase. The corresponding antibacterial test results are given in Table 2 hereafter (MICs in mg/L).

Setting [2] is: read-out: MIC for E. coli A-1261 In the absence of alkaline phosphatase or esterase.
The mark [3] stands for this setting: read-out: MIC for E. coli A-1261 In the presence of an alkaline phosphatase (2 i.U./mL).
Where [4] appears, read: read-out: MIC for E. coli A-1261 In the presence of an esterase (10 i.U./mL).

Turning to `CN(C)CC(=O)OCC1(c2ccc(C#Cc3ccc4c(cnn4CC[C@](C)(C(=O)NO)S(C)(=O)=O)c3)cc2)CC1.O=CO` [Example 49, (R)-(1-(4-((1-(4-(hydroxyamino)-3-methyl-3-(methylsulfonyl)-4-oxobutyl)-1H-indazol-5-yl)ethynyl)phenyl)cyclopropyl)methyl dimethylglycinate formate], the MIC was 2 µg/mL in test [1]; 1 µg/mL against E. coli ATCC25922; 2 µg/mL with K. pneumoniae A-651; 16 µg/mL in the test with P. aeruginosa ATCC27853; 1 µg/mL in the test on wild-type E. coli A-1261 (setting [2]); 1 µg/mL with wild-type E. coli A-1261 (setting [3]). Also, in the test with wild-type E. coli A-1261 (setting [4]), the MIC worked out at 0.125 µg/mL.
For the molecule `C[C@@](CCn1ncc2cc(C#Cc3ccc(C4(COP(=O)(O)O)CC4)cc3)ccc21)(C(=O)NO)S(C)(=O)=O` [Example 48, (R)-(1-(4-((1-(4-(hydroxyamino)-3-methyl-3-(methylsulfonyl)-4-oxobutyl)-1H-indazol-5-yl)ethynyl)phenyl)cyclopropyl)methyl dihydrogen phosphate], the MIC with wild-type E. coli A-1261 (setting [2]) was 16 µg/mL; in the test with wild-type E. coli A-1261 (setting [3]), 1 µg/mL; in the test with wild-type E. coli A-1261 (setting [4]) it was 16 µg/mL.
With `CC(CCn1ccc2cc(-c3ccc(OC(F)(F)F)cc3)ccc21)(C(=O)NO)S(C)(=O)=O` (racemic) [RE9, (RS)—N-hydroxy-2-methyl-2-(methylsulfonyl)-4-(5-(4-(trifluoromethoxy)phenyl)-1H-indol-1-yl)butanamide], the MIC in test [1] was 2 µg/mL (≈ 4.25 µM); in the test with E. coli ATCC25922, 4 µg/mL (≈ 8.5 µM); with K. pneumoniae A-651 it was 2 µg/mL (≈ 4.25 µM); against P. aeruginosa ATCC27853, 8 µg/mL (≈ 17 µM).
With `C[C@@](CCn1ncc2cc(C#CC#C[C@@H]3C[C@@H](O)[C@@H](O)C3)ccc21)(C(=O)NO)S(C)(=O)=O` [Example 51, (R)-4-(5-(((1s,3R,4S)-3,4-dihydroxycyclopentyl)buta-1,3-diyn-1-yl)-1H-indazol-1-yl)-N-hydroxy-2-methyl-2-(methylsulfonyl)butanamide], the “MIC for A. Baumannii T6474” value in test [1] is 4 µg/mL. Further, in the test on E. coli ATCC25922, the “MIC for E. coli ATCC25922” value was determined as 0.5 µg/mL. Also, the “MIC for K. Pneumoniae A-651” value against K. pneumoniae A-651 is 1 µg/mL. Besides, the “MIC for P. aeruginosa ATCC27853” value in the test on P. aeruginosa ATCC27853 worked out at 1 µg/mL.
Consider `C[C@@](CCn1ncc2cc(C#CC#C[C@H]3C[C@@H]3CO)c(F)cc21)(C(=O)NO)S(C)(=O)=O` [Example 46, (R)-4-(6-fluoro-5-(((1S,2S)-2-(hydroxymethyl)cyclopropyl)buta-1,3-diyn-1-yl)-1H-indazol-1-yl)-N-hydroxy-2-methyl-2-(methylsulfonyl)butanamide], for which the MIC was more than 32 µg/mL in test [1], not above 0.063 µg/mL in the test on E. coli ATCC25922, 0.125 µg/mL (≈ 0.279 µM) in the test with K. pneumoniae A-651 and 1 µg/mL (≈ 2.23 µM) against P. aeruginosa ATCC27853.
For the molecule `C[C@@](CCn1ncc2cc(C#Cc3ccc(OCCO)cc3)ccc21)(C(=O)NO)S(C)(=O)=O` [Example 27, (R)—N-hydroxy-4-(5-((4-(2-hydroxyethoxy)phenyl)ethynyl)-1H-indazol-1-yl)-2-methyl-2-(methylsulfonyl)butanamide], the MIC amounted to 0.125 µg/mL (≈ 0.265 µM) in test [1], 0.25 µg/mL (≈ 0.53 µM) against E. coli ATCC25922, 0.5 µg/mL (≈ 1.06 µM) against K. pneumoniae A-651 and 2 µg/mL (≈ 4.24 µM) with P. aeruginosa ATCC27853.
On the same counts, the results for `COc1cccc(-c2ccc3c(cnn3CCC(C)(C(=O)NO)S(C)(=O)=O)c2)c1F` (racemic) [RE2, (RS)-4-(5-(2-fluoro-3-methoxyphenyl)-1H-indazol-1-yl)-N-hydroxy-2-methyl-2-(methylsulfonyl)butanamide] are 32 µg/mL (≈ 73.5 µM), 8 µg/mL (≈ 18.4 µM), 16 µg/mL (≈ 36.7 µM) and 16 µg/mL (≈ 36.7 µM).
Consider `C[C@@](CCn1ncc2cc(C#Cc3ccc(NC(=O)CO)cc3)ccc21)(C(=O)NO)S(C)(=O)=O` [Example 28, (R)—N-hydroxy-4-(5-((4-(2-hydroxyacetamido)phenyl)ethynyl)-1H-indazol-1-yl)-2-methyl-2-(methylsulfonyl)butanamide], for which the MIC came out at 0.5 µg/mL (≈ 1.03 µM) in test [1], 1 µg/mL (≈ 2.06 µM) in the test with E. coli ATCC25922, 2 µg/mL (≈ 4.13 µM) with K. pneumoniae A-651 and 4 µg/mL (≈ 8.26 µM) in the test on P. aeruginosa ATCC27853.
On the same counts, the results for `CC(C)(N)C#CC#Cc1ccc2c(cnn2CC[C@](C)(C(=O)NO)S(C)(=O)=O)c1` [Example 24, (R)-4-(5-(5-amino-5-methylhexa-1,3-diyn-1-yl)-1H-indazol-1-yl)-N-hydroxy-2-methyl-2-(methylsulfonyl)butanamide] are more than 32 µg/mL, 1 µg/mL (≈ 2.4 µM), 4 µg/mL (≈ 9.6 µM) and 1 µg/mL (≈ 2.4 µM).
For `CSc1ccc(-c2ccc3c(cnn3CC[C@](C)(C(=O)NO)S(C)(=O)=O)c2)c(F)c1` [Example 1, (R)-4-(5-(2-fluoro-4-(methylthio)phenyl)-1H-indazol-1-yl)-N-hydroxy-2-methyl-2-(methylsulfonyl)butanamide], the MIC in test [1] is 16 µg/mL (≈ 35.4 µM); in the test on E. coli ATCC25922, not above 0.063 µg/mL; against K. pneumoniae A-651, 0.25 µg/mL (≈ 0.554 µM); against P. aeruginosa ATCC27853 it was 4 µg/mL (≈ 8.86 µM).
For `C[C@H](O)c1ccc(C#Cc2ccc3c(cnn3CC[C@](C)(C(=O)NO)S(C)(=O)=O)c2)cc1` [Example 23, (R)—N-hydroxy-4-(5-((4-((S)-1-hydroxyethyl)phenyl)ethynyl)-1H-indazol-1-yl)-2-methyl-2-(methylsulfonyl)butanamide], in that order: 0.125 µg/mL (≈ 0.274 µM), 0.125 µg/mL (≈ 0.274 µM), 0.5 µg/mL (≈ 1.1 µM) and 1 µg/mL (≈ 2.2 µM).
For `CC(CCn1ncc2cc(C#Cc3ccc(N)cc3)ccc21)(C(=O)NO)S(C)(=O)=O` (racemic) [RE6, (RS)-4-(5-((4-aminophenyl)ethynyl)-1H-indazol-1-yl)-N-hydroxy-2-methyl-2-(methylsulfonyl)butanamide], in that order: 1 µg/mL (≈ 2.34 µM), 0.25 µg/mL (≈ 0.586 µM), 0.5 µg/mL (≈ 1.17 µM) and 8 µg/mL (≈ 18.8 µM).
On the same counts, the results for `C[C@@H](O)c1ccc(C#Cc2ccc3c(cnn3CC[C@](C)(C(=O)NO)S(C)(=O)=O)c2F)cc1` [Example 37, (R)-4-(4-fluoro-5-((4-((R)-1-hydroxyethyl)phenyl)ethynyl)-1H-indazol-1-yl)-N-hydroxy-2-methyl-2-(methylsulfonyl)butanamide] are not above 0.063 µg/mL, not above 0.063 µg/mL, 0.125 µg/mL (≈ 0.264 µM) and 1 µg/mL (≈ 2.11 µM).
